Patent publication US20230047816A1 (priority 2018, published 2023)
Entries after “also recorded” stand apart in the source; their conditions may differ.

Columns and labels:
[1] = system: Caenorhabditis elegans N2; experiment: C. elegans life span in 96 well microtiter plates; format: in vivo; settings: strain N2
Excerpt: The test of AZ67 compound had been made according to protocol disclosed in Solis, G. M., Petrascheck, M. Measuring Caenorhabditis elegans

[2] = system: MCAO model of brain ischemia; experiment: MCAO model of brain ischemia, rota-rod test; format: in vivo, C57BL/6-J mice; settings: 60 mg/kg bolus via jugular vein after reperfusion; 30 mins occlusion; test 24 hours after MCAO
Procedure: For the MCAO model of brain ischemia, 10 weeks-old male C57BL/6-J mice were used (n=8 animals per condition) following a published protocol (1,2). Mice were anesthetized with 4% (vol/vol) Sevoflurane in a mixture of ⅓ O2 and ⅔ N2O using a vaporizer. After the induction of anesthesia, Sevoflurane was reduced to 3% (vol/vol). The body temperature was maintained at 36.5° C. during the surgery. A laser-Doppler flow probe attached to a flowmeter was located over the thinned skull in the MCAO area (4 mm lateral to bregma) to monitor the relative cerebral brain flow during the experiment. Under operating microscope, the common, external and internal carotid arteries were dissected from connective tissue through a midline neck incision. The common carotid artery (CCA) was carefully dissected from the surrounding nerves with caution to avoid harming of the vagal nerve. A suture monofilament was introduced from the lumen of the external carotid artery (ECA) into the internal carotid artery (ICA) to a distance of 9-10 mm beyond the CCA bifurcation, in order to occlude the origin of middle cerebral artery (MCA). The filament was removed 30 mins after occlusion. AZ67 or compound 1 (60 mg/kg of body weight) or vehicle were administered in a bolus (200 μl) via the jugular vein immediately after reperfusion. […] The latency to fall was determined and expressed in seconds.

[3] = system: mouse cortical primary neurons; experiment: β-amyloid-induced neuronal apoptosis (annexin V/7-AAD flow cytometry); format: cell-based; settings: β-amyloid 24 hours
Procedure: Primary cultures of C57BL/6 mice cortical neurons were prepared from fetal animals of 14.5 days of gestation, seeded at 1.8·10^5 cells/cm^2 in plastic plates coated with poly-D-lysine (10 mg/ml) and incubated in Neurobasal (Life Technologies) supplemented with 2 mM glutamine, 5 mM of glucose, 0.25 mM pyruvate and 2% B27 supplement (Life Technologies). Cells were incubated at 37° C. in a humidified 5% CO2-containing atmosphere. At 72 hours after plating, medium was replaced using Neurobasal (Life Technologies) supplemented with 2 mM glutamine, 5 mM glucose, 0.25 mM pyruvate and 2% B27 supplement (Life Technologies) minus antioxidants (MAO; i.e., lacking vitamin E, vitamin E acetate, superoxide dismutase, catalase and glutathione). […] APC/C-conjugated annexin-V and 7-amino-actinomycin D (7-AAD) (Becton Dickinson Biosciences, BDB, San Jose, Calif., USA) were used to determine quantitatively the percentage of apoptotic neurons by flow cytometry. Cells were stained with annexin V-APC and 7-AAD, following the manufacturer's instructions, and were analysed on a FACScalibur™ flow cytometer (15 mW argon ion laser tuned at 488 nm; CellQuest software, Becton Dickinson Biosciences) using the CellQuest software (BDB). Both GFP+ and GFP− cells were analyzed separately, and the annexin V-APC-stained cells that were 7-AAD-negative were considered to be apoptotic.

[4] = system: mouse primary cortical neurons; experiment: Lactate release (glycolysis) upon excitotoxic stimuli; format: cell-based; settings: NMDA or glutamate 100 μM 10 minutes, then inhibitor 0.01 μM 24 hours
Procedure: To directly test the ability of the PFKFB3 inhibitor, AZ67 and Compound 1, to protect against the damage caused by excitotoxic stimuli, mouse primary cortical neurons were subjected to a short-term exposure to NMDA or glutamate (100 μM for 10 minutes), a well-known excitotoxic stimuli (Almeida and Bolahos, 2001). For NMDAR activation, neurons at 8 days in vitro were incubated with 100 μM glutamate (plus 10 μM glycine) or 100 μM NMDA (plus 10 μM glycine) for 10 minutes. Neurons were then washed and further incubated in culture medium with the PFKFB3 inhibitors for 24 hours. A colorimetric NADP/NADPH assay kit (Abcam) was used. […] NADPH was determined in 200 μl of the supernatant, after heatinged […] 60° C. for 30 minutes to decompose NADP+. Actual NADP and NADPH+ concentrations were calculated by extrapolating values to a NADPH standard curve (0-100 pmol/well).
In view that this treatment causes PFKFB3 stabilization leading to glycolytic activation and PPP inhibition (Rodriguez-Rodriguez et al., 2012), we reasoned that PFKFB3 inhibition by AZ67 and Compound 1 could abrogate these effects. […] To directly test whether this effect is associated with the control of PFKFB3 on glycolysis, we next assessed the glycolytic-end product, lactate, released to the incubation medium.

Question: How did the “% LS change” value ([1]; Conc 10 uM, set AI) turn out when `Cc1noc(C)c1Cn1cc(C#N)c2cc(Oc3ccc(NC(=O)[C@@H]4CCCN4)cc3)ccc21` [AZ67, (2S)-N-[4-({3-cyano-1-[(3,5-dimethyl-1,2-oxazol-4-yl)methyl]-1H-indol-5-yl}oxy)phenyl]pyrrolidine-2-carboxamide] was run?
Answer: Its value is −8%.

Question: What about the “Lifespan” value ([1]; Conc 10 uM, set AI) of the same compound?
Answer: Its value is 18.81 days.

Question: What about the “% LS change” value ([1]; Conc 100 uM, set AI) of the same compound?
Answer: The value was 24%.

Question: What about the “Lifespan” value ([1]; Conc 100 uM, set AI) of the same compound?
Answer: Its value is 25.45 days.

Question: What about the “% LS change” value ([1]; conc 10, set Aib) of the same compound?
Answer: Its value is 15%.

Question: What about the “Lifespan” value ([1]; conc 10, set Aib) of the same compound?
Answer: Its value is 25.98 days.

Question: And the “% LS change” value ([1]; conc 100, set Aib)?
Answer: Its value is 22%.

Question: What about the “Lifespan” value ([1]; conc 100, set Aib) of the same compound?
Answer: Its value is 27.47 days.

Question: And the “improvement in rota-rod test performance (latency to fall)” value [2]?
Answer: Its value is roughly 50%.

Question: And the “prevention of apoptotic neuronal death caused by β-amyloid” value [3]?
Answer: Its value is roughly 60%.

Question: And the “lactate released (activation of glycolysis)” value [4]?
Answer: The value was “fully prevented; also recorded: prevent the increase in lactate production”.
